Here are results for 4 compounds from patent US20230114728A1 (Venatorx Pharmaceuticals, Inc., priority 2019, published 2023).

Values after ≈ are worked out from the molar mass of the structure shown.

What all share (assay type): cell-based
One test deals with N. gonorrhoeae H041. In words: Liquid broth MIC in Fastidious broth. The note with it: Neisseria gonorrhoeae, H041, read-out: Minimum Inhibitory Concentration, H041. The essentials:
(§1)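 Colonies were swabbed from chocolate agar after 24 h growth and standardised by optical density at 600 nm. Compounds were serially diluted twofold in Fastidious broth, and bacteria added to give 5×10^5 CFU/mL. After about 24 h at 36 °C in 5% CO2, the lowest concentration allowing under 10% growth was taken as MIC.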

The subject of a further test is N. gonorrhoeae FA1090. Put plainly: Liquid broth MIC in Fastidious broth. The note with it: Neisseria gonorrhoeae; N. gonorrhoeae FA1090; Fastidious broth; read-out: Minimum Inhibitory Concentration, FA1090. Summed up:
as §1

The next test relates to N. gonorrhoeae WHO G. Put plainly: Liquid broth MIC in Fastidious broth. The note with it: Neisseria gonorrhoeae; N. gonorrhoeae WHO G; Fastidious broth; read-out: Minimum Inhibitory Concentration, WHO G. The essentials:
as §1

For another test, the system named is N. gonorrhoeae WHO Z. In words: Liquid broth MIC in Fastidious broth. The note with it: Neisseria gonorrhoeae, read-out: Minimum Inhibitory Concentration, WHO Z. The essentials:
as §1

The next test has as its system N. gonorrhoeae WHO L. Put plainly: Liquid broth MIC in Fastidious broth. The note with it: Neisseria gonorrhoeae; N. gonorrhoeae WHO L; Fastidious broth; read-out: Minimum Inhibitory Concentration, WHO L. The essentials:
as §1

For a further test, the system named is N. gonorrhoeae WHO Q. Put plainly: Liquid broth MIC in Fastidious broth. The note with it: Neisseria gonorrhoeae, read-out: Minimum Inhibitory Concentration, WHO Q. Summed up:
as §1

A further test deals with N. gonorrhoeae WHO K. Put plainly: Liquid broth MIC in Fastidious broth. The note with it: Neisseria gonorrhoeae, read-out: Minimum Inhibitory Concentration, WHO K. Summed up:
as §1

The test system of test [1] is N. gonorrhoeae ATCC 49226. Put plainly: Liquid broth MIC in Fastidious broth. The note with it: Neisseria gonorrhoeae, ATCC49226; N. gonorrhoeae ATCC 49226; Fastidious broth; read-out: Minimum Inhibitory Concentration, ATCC 49226. Summed up:
as §1

The subject of another test is E. coli 901C. In words: Broth microdilution MIC in CAMHB. The note with it: Escherichia coli; E. coli 901C (hyper-permeable); MHB; read-out: Minimum Inhibitory Concentration, E. coli 901C. The essentials:
(§2)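 Colonies from cation-adjusted Mueller Hinton agar are grown in broth (3-5 h, 37° C), adjusted by OD600, and added at 2-8×10^5 CFU/mL to 2-fold compound dilutions. After 16-20 h at 37° C, the lowest concentration without growth is taken as MIC.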
(Dilution methods test growth across graded concentrations, often in twofold steps.)

The next test concerns A. baumannii ATCC 19606. In words: Broth microdilution MIC in CAMHB. The note with it: Acinetobacter baumannii, ATCC19606; MHB; read-out: Minimum Inhibitory Concentration, A. baumannii ATCC 19606. Summed up: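 Hyper-permeable or efflux-deficient strains serve to probe outer-membrane penetration. Growth inhibition is scored visually after 16-20 h at 37° C in CAMHB, starting from 2-8×10^5 CFU/mL.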

The test system of a further test is P. aeruginosa ATCC 35151. In words: Broth microdilution MIC in CAMHB. The note with it: Pseudomonas aeruginosa, ATCC35151; MHB; hyper-permeable strain; read-out: Minimum Inhibitory Concentration, P. aeruginosa ATCC 35151. Summed up: as §2
Test [2] concerns K. pneumoniae SI-117 producing VIM-1. In words: Broth microdilution MIC in CAMHB. The note with it: Klebsiella pneumoniae, read-out: Minimum Inhibitory Concentration, K. pneumoniae SI-117. The essentials:
as §2

Consider `CCN1CCN(C(=O)NC(C(=O)N[C@H]2Cc3cccc(C(=O)O)c3OB2O)c2ccc(C(=O)O)c(Cl)c2Cl)C(=O)C1=O` (stereo partly drawn) [Example 201, (3R)-3-(2-(4-carboxy-2,3-dichlorophenyl)-2-(4-ethyl-2,3-dioxopiperazine-1-carboxamido)acetamido)-2-hydroxy-3,4-dihydro-2H-benzo[e][1,2]oxaborinine-8-carboxylic acid], for which the MIC with N. gonorrhoeae H041 is over 64 µg/mL; with N. gonorrhoeae FA1090, 1 to 2 µg/mL (≈ 1.61 to 3.22 µM); with N. gonorrhoeae WHO G, 4 to 8 µg/mL (≈ 6.44 to 12.9 µM); in the test with N. gonorrhoeae WHO Z, 16 to 32 µg/mL (≈ 25.8 to 51.5 µM); in the test with N. gonorrhoeae WHO L, over 64 µg/mL; in the test with N. gonorrhoeae WHO Q it was 16 to 32 µg/mL (≈ 25.8 to 51.5 µM). For the same compound, the MIC with N. gonorrhoeae WHO K was 16 to 32 µg/mL (≈ 25.8 to 51.5 µM); in test [1] it was 4 to 8 µg/mL (≈ 6.44 to 12.9 µM); with E. coli 901C, 0.5 to 1 µg/mL (≈ 0.805 to 1.61 µM); in the test on A. baumannii ATCC 19606 it was over 128 µg/mL; in the test with P. aeruginosa ATCC 35151, 0.5 to 1 µg/mL (≈ 0.805 to 1.61 µM); in test [2], over 128 µg/mL.
As for `CCN1CCN(C(=O)NC(C(=O)N[C@H]2Cc3cccc(C(=O)O)c3OB2O)c2cc(C#N)c(O)cc2F)C(=O)C1=O` (stereo partly drawn) [Example 209, (3R)-3-(2-(5-cyano-2-fluoro-4-hydroxyphenyl)-2-(4-ethyl-2,3-dioxopiperazine-1-carboxamido)acetamido)-2-hydroxy-3,4-dihydro-2H-benzo[e][1,2]oxaborinine-8-carboxylic acid], the MIC is 16 to 32 µg/mL (≈ 28.2 to 56.4 µM) in the test on N. gonorrhoeae H041; 0.25 to 0.5 µg/mL (≈ 0.441 to 0.881 µM) with N. gonorrhoeae FA1090; 4 to 8 µg/mL (≈ 7.05 to 14.1 µM) in the test with N. gonorrhoeae WHO G; 4 to 8 µg/mL (≈ 7.05 to 14.1 µM) in the test on N. gonorrhoeae WHO Z; 16 to 32 µg/mL (≈ 28.2 to 56.4 µM) in the test with N. gonorrhoeae WHO L; 16 to 32 µg/mL (≈ 28.2 to 56.4 µM) with N. gonorrhoeae WHO Q. In addition, the MIC in the test with N. gonorrhoeae WHO K is 16 to 32 µg/mL (≈ 28.2 to 56.4 µM); in [1], 4 to 8 µg/mL (≈ 7.05 to 14.1 µM); in the test on E. coli 901C, under 0.25 µg/mL; in the test with A. baumannii ATCC 19606, over 128 µg/mL; in the test with P. aeruginosa ATCC 35151, under 0.25 µg/mL; in [2] it was over 128 µg/mL.
For `O=C(O)c1cccc2c1OB(O)[C@@H](NC(=O)C(NC(=O)N1CCN(C3CNC3)C(=O)C1=O)c1c(F)cc(O)cc1F)C2` (stereo partly drawn) [Example 212, (3R)-3-(2-(4-(azetidin-3-yl)-2,3-dioxopiperazine-1-carboxamido)-2-(2,6-difluoro-4-hydroxyphenyl)acetamido)-2-hydroxy-3,4-dihydro-2H-benzo[e][1,2]oxaborinine-8-carboxylic acid], the MIC is over 64 µg/mL with N. gonorrhoeae H041; 1 to 2 µg/mL (≈ 1.7 to 3.41 µM) with N. gonorrhoeae FA1090; 16 to 32 µg/mL (≈ 27.2 to 54.5 µM) in the test on N. gonorrhoeae WHO G; over 64 µg/mL with N. gonorrhoeae WHO Z; over 64 µg/mL in the test on N. gonorrhoeae WHO L; over 64 µg/mL in the test on N. gonorrhoeae WHO Q. For the same compound, the MIC in the test on N. gonorrhoeae WHO K was over 64 µg/mL; in test [1], 16 to 32 µg/mL (≈ 27.2 to 54.5 µM); with E. coli 901C, 0.5 to 1 µg/mL (≈ 0.851 to 1.7 µM); with A. baumannii ATCC 19606 it was over 128 µg/mL; in the test on P. aeruginosa ATCC 35151, 0.5 to 1 µg/mL (≈ 0.851 to 1.7 µM); in test [2] it was 32 to 64 µg/mL (≈ 54.5 to 109 µM).
Turning to `CCN1CCN(C(=O)NC(C(=O)N[C@H]2Cc3cccc(C(=O)O)c3OB2O)c2c(F)cc(NC(=O)NC)cc2F)C(=O)C1=O` (stereo partly drawn) [Example 213, (3R)-3-(2-(2,6-difluoro-4-(3-methylureido)phenyl)-2-(4-ethyl-2,3-dioxopiperazine-1-carboxamido)acetamido)-2-hydroxy-3,4-dihydro-2H-benzo[e][1,2]oxaborinine-8-carboxylic acid], the MIC in the test on N. gonorrhoeae H041 is over 64 µg/mL; with N. gonorrhoeae FA1090 it was under 0.125 µg/mL; in the test on N. gonorrhoeae WHO G, 1 to 2 µg/mL (≈ 1.62 to 3.24 µM); in the test on N. gonorrhoeae WHO Z, 16 to 32 µg/mL (≈ 26 to 51.9 µM); in the test with N. gonorrhoeae WHO L it was over 64 µg/mL; with N. gonorrhoeae WHO Q it was over 64 µg/mL. In addition, the MIC in the test on N. gonorrhoeae WHO K is over 64 µg/mL; in [1], 4 to 8 µg/mL (≈ 6.49 to 13 µM); with E. coli 901C, under 0.25 µg/mL; with A. baumannii ATCC 19606, over 128 µg/mL; in the test on P. aeruginosa ATCC 35151 it was 0.5 to 1 µg/mL (≈ 0.811 to 1.62 µM); in test [2], over 128 µg/mL.
